{"source": "patent US20240424024A1", "about": "“PHARMACEUTICAL COMPOSITION AND KIT COMPRISING AN IMMUNOMODULATORY SUBSTANCE FOR TREATING DISEASES” (ellennbe GmbH, priority 2021, published 2024)", "origin": "cited, not measured here", "system": "perfusion of the skin", "conditions": "50 μl of 20 mmol/l MN, healthy subjects, Laser Speckle Contrast Imager; Elawa et al. 2020"}
{"compound": "COC(=O)c1cccnc1", "note": "[methyl nicotinate]", "values": [{"measurement": "perfusion increase of the skin after topical application", "result": "reaches a stable plateau phase after five minutes"}]}
